In ChEMBL document CHEMBL1201862, “PubChem BioAssay data set” (2004):
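Tested at 5 concentrations; 48 h exposure; 96-well plates; endpoints linearly interpolated, else capped at highest concentration. Here, GI50 denotes the concentration required for 50% inhibition of growth.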 Calls of active or inactive are those of the source. No stated cut-off is given here; in the data, active = GI50 up to about 1.1 µM and inactive = higher.

Assays:
Experiment in all cases: DTP human tumour cell line panel, 48 h
Hs-578T = system: Hs-578T
UO-31 = system: UO-31
A498 = system: A498
SNB-75 = system: SNB-75
HL-60 = system: HL-60
CAKI-1 = system: CAKI-1
HCT-116 = system: HCT-116
RPMI-8226 = system: RPMI-8226
EKVX = system: EKVX
DU-145 = system: DU-145
ACHN = system: ACHN
SK-MEL-28 = system: SK-MEL-28
MDA-MB-435 = system: MDA-MB-435
SK-MEL-2 = system: SK-MEL-2
786-0 = system: 786-0
OVCAR-3 = system: OVCAR-3
MOLT-4 = system: MOLT-4
OVCAR-8 = system: OVCAR-8
UACC-62 = system: UACC-62
CCRF-CEM = system: CCRF-CEM
SF-295 = system: SF-295
NCI-H226 = system: NCI-H226
Malme-3M = system: Malme-3M
MCF7 = system: MCF7
TK-10 = system: TK-10
UACC-257 = system: UACC-257
HOP-62 = system: HOP-62
MDA-MB-231 = system: MDA-MB-231
HT-29 = system: HT-29
RXF 393 = system: RXF 393
HCT-15 = system: HCT-15
SF-268 = system: SF-268
KM12 = system: KM12
NCI-H522 = system: NCI-H522
SNB-19 = system: SNB-19
SN12C = system: SN12C
M14 = system: M14
NCI-H460 = system: NCI-H460
A549 = system: A549
HCC 2998 = system: HCC 2998
OVCAR-5 = system: OVCAR-5
SK-MEL-5 = system: SK-MEL-5
COLO 205 = system: COLO 205
IGROV-1 = system: IGROV-1
SK-OV-3 = system: SK-OV-3
SW-620 = system: SW-620
OVCAR-4 = system: OVCAR-4
PC-3 = system: PC-3
SR = system: SR
SF-539 = system: SF-539
BT-549 = system: BT-549
HOP-92 = system: HOP-92
K562 = system: K562
T47D = system: T47D
LOX IMVI = system: LOX IMVI
NCI-H23 = system: NCI-H23
NCI/ADR-RES = system: NCI/ADR-RES
U-251 = system: U-251
MDA-N = system: MDA-N

## OC1(c2ccccc2)CC2CCC(C1)N2CCCC(O)(c1ccccc1)c1ccccc1 (centres undefined)
Hs-578T
  GI50: 4.83 µM (inactive)
UO-31
  GI50: 7.55 µM (inactive)
A498
  GI50: 15.5 µM (inactive)
SNB-75
  GI50: 11.2 µM (inactive)
HL-60
  GI50: 22.9 µM (inactive)
CAKI-1
  GI50: 14 µM (inactive)
HCT-116
  GI50: 14.6 µM (inactive)
RPMI-8226
  GI50: 2.28 µM (inactive)
EKVX
  GI50: 16.5 µM (inactive)
DU-145
  GI50: 21.4 µM (inactive)
ACHN
  GI50: 17.2 µM (inactive)
SK-MEL-28
  GI50: 17.7 µM (inactive)
MDA-MB-435
  GI50: 12 µM (inactive)
SK-MEL-2
  GI50: 20.3 µM (inactive)
786-0
  GI50: 12.5 µM (inactive)
OVCAR-3
  GI50: 16.4 µM (inactive)
MOLT-4
  GI50: 7.45 µM (inactive)
OVCAR-8
  GI50: 19.2 µM (inactive)
UACC-62
  GI50: 14.3 µM (inactive)
CCRF-CEM
  GI50: 4.33 µM (inactive)
SF-295
  GI50: 3.33 µM (inactive)
NCI-H226
  GI50: 12.4 µM (inactive)
Malme-3M
  GI50: 15.9 µM (inactive)
MCF7
  GI50: 16.1 µM (inactive)
TK-10
  GI50: 12.7 µM (inactive)
UACC-257
  GI50: 2 µM (inactive)
HOP-62
  GI50: 15.5 µM (inactive)
MDA-MB-231
  GI50: 18.9 µM (inactive)
HT-29
  GI50: 2.78 µM (inactive)
RXF 393
  GI50: 11.9 µM (inactive)
HCT-15
  GI50: 14.2 µM
SF-268
  GI50: 13.4 µM (inactive)
KM12
  GI50: 15.3 µM (inactive)
NCI-H522
  GI50: 10.2 µM (inactive)
SNB-19
  GI50: 20.7 µM (inactive)
SN12C
  GI50: 16.7 µM (inactive)
M14
  GI50: 16.4 µM (inactive)
NCI-H460
  GI50: 2.2 µM (inactive)
A549
  GI50: 17.1 µM (inactive)
HCC 2998
  GI50: 2.14 µM (inactive)
OVCAR-5
  GI50: 25.8 µM (inactive)
SK-MEL-5
  GI50: 3.2 µM (inactive)
COLO 205
  GI50: 10.5 µM (inactive)
IGROV-1
  GI50: 7.98 µM (inactive)
SK-OV-3
  GI50: 13.8 µM (inactive)
SW-620
  GI50: 7.33 µM (inactive)
OVCAR-4
  GI50: 33.8 µM (inactive)
PC-3
  GI50: 3.44 µM (inactive)
SR
  GI50: 11.8 µM (inactive)
SF-539
  GI50: 4.54 µM (inactive)
BT-549
  GI50: 13 µM (inactive)
HOP-92
  GI50: 5.62 µM (inactive)
K562
  GI50: 4.99 µM (inactive)
T47D
  GI50: 21.3 µM (inactive)
LOX IMVI
  GI50: 10.6 µM (inactive)
NCI-H23
  GI50: 11.9 µM (inactive)
NCI/ADR-RES
  GI50: 17.7 µM (inactive)
U-251
  GI50: 15.1 µM (inactive)

## O=C(O)c1nc2cc(C(F)(F)F)ccc2nc1Nc1ccc(F)cc1
Hs-578T
  GI50: 19.6 µM (inactive)
UO-31
  GI50: 15.8 µM (inactive)
A498
  GI50: 14.3 µM (inactive)
SNB-75
  GI50: 18.5 µM (inactive)
CAKI-1
  GI50: 25.2 µM (inactive)
HCT-116
  GI50: 15.4 µM (inactive)
RPMI-8226
  GI50: 4.17 µM (inactive)
EKVX
  GI50: 21.9 µM (inactive)
ACHN
  GI50: 12.3 µM (inactive)
SK-MEL-28
  GI50: 25.6 µM (inactive)
MDA-MB-435
  GI50: 7.71 µM (inactive)
SK-MEL-2
  GI50: 7.16 µM (inactive)
786-0
  GI50: 22.4 µM (inactive)
OVCAR-3
  GI50: 15.8 µM (inactive)
MOLT-4
  GI50: 13.6 µM (inactive)
OVCAR-8
  GI50: 19.4 µM (inactive)
UACC-62
  GI50: 12.6 µM (inactive)
CCRF-CEM
  GI50: 12.6 µM (inactive)
SF-295
  GI50: 13.4 µM (inactive)
NCI-H226
  GI50: 27 µM (inactive)
Malme-3M
  GI50: 12.4 µM (inactive)
MCF7
  GI50: 22.2 µM (inactive)
TK-10
  GI50: 20 µM (inactive)
UACC-257
  GI50: 20.6 µM (inactive)
MDA-MB-231
  GI50: 22.9 µM (inactive)
HT-29
  GI50: 23 µM (inactive)
RXF 393
  GI50: 16.3 µM (inactive)
SF-268
  GI50: 22.3 µM (inactive)
KM12
  GI50: 6.64 µM (inactive)
NCI-H522
  GI50: 7.5 µM (inactive)
SNB-19
  GI50: 16.7 µM (inactive)
M14
  GI50: 27 µM (inactive)
A549
  GI50: 11.2 µM (inactive)
OVCAR-5
  GI50: 35.1 µM (inactive)
SK-MEL-5
  GI50: 16.2 µM (inactive)
COLO 205
  GI50: 15.9 µM (inactive)
IGROV-1
  GI50: 18.7 µM (inactive)
SK-OV-3
  GI50: 30.7 µM (inactive)
SW-620
  GI50: 17.3 µM (inactive)
PC-3
  GI50: 10.8 µM (inactive)
SR
  GI50: 17.1 µM (inactive)
SF-539
  GI50: 17.5 µM (inactive)
BT-549
  GI50: 12.6 µM (inactive)
HOP-92
  GI50: 13.5 µM (inactive)
K562
  GI50: 13.5 µM (inactive)
T47D
  GI50: 20.2 µM (inactive)
LOX IMVI
  GI50: 18.7 µM (inactive)
NCI-H23
  GI50: 16 µM (inactive)
MDA-N
  GI50: 22.5 µM (inactive)
NCI/ADR-RES
  GI50: 20 µM (inactive)
U-251
  GI50: 18.3 µM (inactive)

## COC(=O)/C(=N\N)C(C(=O)C(=O)Nc1cc(Cl)ccc1Cl)c1nc2ccc([N+](=O)[O-])cc2nc1O (centres undefined)
Hs-578T
  GI50: 47.9 µM (inactive)
UO-31
  GI50: 29.6 µM (inactive)
A498
  GI50: > 100 µM (inactive)
SNB-75
  GI50: > 100 µM (inactive)
HL-60
  GI50: > 100 µM (inactive)
CAKI-1
  GI50: > 100 µM (inactive)
HCT-116
  GI50: > 100 µM (inactive)
RPMI-8226
  GI50: > 100 µM (inactive)
EKVX
  GI50: 72.9 µM (inactive)
ACHN
  GI50: 50.9 µM (inactive)
SK-MEL-28
  GI50: > 100 µM (inactive)
MDA-MB-435
  GI50: > 100 µM (inactive)
SK-MEL-2
  GI50: > 100 µM (inactive)
786-0
  GI50: > 100 µM (inactive)
OVCAR-3
  GI50: 74.3 µM (inactive)
MOLT-4
  GI50: > 100 µM (inactive)
OVCAR-8
  GI50: > 100 µM (inactive)
UACC-62
  GI50: > 100 µM (inactive)
CCRF-CEM
  GI50: > 100 µM (inactive)
SF-295
  GI50: > 100 µM (inactive)
NCI-H226
  GI50: > 100 µM (inactive)
Malme-3M
  GI50: > 100 µM (inactive)
MCF7
  GI50: > 100 µM (inactive)
TK-10
  GI50: > 100 µM (inactive)
UACC-257
  GI50: > 100 µM (inactive)
HOP-62
  GI50: > 100 µM (inactive)
MDA-MB-231
  GI50: > 100 µM (inactive)
HT-29
  GI50: > 100 µM (inactive)
RXF 393
  GI50: > 100 µM (inactive)
HCT-15
  GI50: 82.6 µM
SF-268
  GI50: > 100 µM (inactive)
KM12
  GI50: > 100 µM (inactive)
NCI-H522
  GI50: > 100 µM (inactive)
SN12C
  GI50: > 100 µM (inactive)
M14
  GI50: > 100 µM (inactive)
NCI-H460
  GI50: > 100 µM (inactive)
A549
  GI50: > 100 µM (inactive)
HCC 2998
  GI50: > 100 µM (inactive)
OVCAR-5
  GI50: > 100 µM (inactive)
SK-MEL-5
  GI50: > 100 µM (inactive)
IGROV-1
  GI50: 50.1 µM (inactive)
SK-OV-3
  GI50: > 100 µM (inactive)
SW-620
  GI50: > 100 µM (inactive)
OVCAR-4
  GI50: > 100 µM (inactive)
PC-3
  GI50: > 100 µM (inactive)
SF-539
  GI50: > 100 µM (inactive)
BT-549
  GI50: > 100 µM (inactive)
HOP-92
  GI50: > 100 µM (inactive)
K562
  GI50: > 100 µM (inactive)
T47D
  GI50: > 100 µM (inactive)
LOX IMVI
  GI50: > 100 µM (inactive)
NCI-H23
  GI50: > 100 µM (inactive)
MDA-N
  GI50: > 100 µM (inactive)
NCI/ADR-RES
  GI50: > 100 µM (inactive)
U-251
  GI50: > 100 µM (inactive)
